What was measured:
HeLa cells = assay: Confocal imaging and colocalization in live HeLa cells; assay type: cell-based; conditions: for fluorescence at 405/475 nm: LNPs
Experimental: FIGS. 9A-9E: confocal imaging of lipid environments targeted by ONOO^− in live HeLa cells. Cells were seeded into glass microscope dishes, incubated with LNPs (50 μM) and stained with organelle trackers and/or actin dye prior to imaging. LNPs obtained from a 47.5:47.5:5.0 molar ratio of DOTMA, DOPE, and DPPC-TC-ONOO^−. FIG. 9A: cells treated with LNPs, stimulated with IFN-γ/LPS/PMA. Time coarse images acquired upon PMA treatment. FIG. 9B: cells treated with LNPs and 1400 W. FIG. 9C: cells treated with LNPs, then with 1400 W and IFN-γ/LPS/PMA. FIGS. 9D-9E: quantitative colocalization study of cells treated with LNPs and stimulated with IFN-γ/LPS/PMA. Pearson's correlation coefficient (PCC) was calculated for quantitative assessment. Organelle trackers: ER-Tracker™, MitoTracker™, CellLight™ Golgi-RFP, LysoTracker™. Cell cytoskeleton was assessed with CellMask™ Deep Red Actin Tracking Stain. DPPC-TC channel: 405/475 nm. Scale bars=20 μm (FIGS. 9A-9D) or 5 μm (FIG. 9E). With the utility of DPPC-TC-ONOO^− proven in synthetic protocell membranes, incorporation into live HeLa and RAW 264.7 cells was sought, which are relevant to redox-induced stress and have well-recognized pathways for RNS and ROS production. Lipid nanoparticles (LNPs) (˜100 nm in diameter) was used to deliver DPPC-TC-ONOO− into cells. This method circumvented the limited solubility of DPPC-TC-ONOO− due to the relatively hydrophobic butanone-coumarin motif. LNPs were obtained via sonication from 1,2-di-O-octadecenyl-3-trimethylammonium propane (DOTMA), 1,2-dioleoyl-sn-glycero-3-phosphoethanolamine (DOPE), and DPPC-TC-ONOO− (47.5:47.5:5.0 molar ratio), which were hydrated with a 300 mM sucrose solution. DOTMA and DOPE were chosen as the carrier lipids due to their cationic/zwitterionic natures, which has been postulated to enhance uptake through the cell membrane. The impact of different LNP compositions and incubation times on the cellular incorporation of DPPC-TC-ONOO^− was assessed. […] Specifically, LNPs containing greater than 10 mol % DPPC-TC-ONOO− were considerably more heterogenous in size (up to […] observed, in contrast to ˜100 nm) and nonuniform in vesicle lamellarity. Those with less than 4 mol % DPPC-TC-ONOO− led to insufficient fluorescence signal. To balance these counteracting factors, 5 mol % DPPC-TC-ONOO− was used, with 47.5 mol % DOTMA and DOPE, each. In these initial assays, cells were incubated with LNPs for up to 15 hours to complete the uptake and intracellular localization of DPPC-TC-ONOO−. Shorter incubation times (3-to-5 hours) led to its uptake but not subcellular localization. […] However, high serum concentration in DMEM caused interference between LNPs and serum-protein, resulting in aggregate formation as observed by microscopy. To overcome this obstacle, LNPs (50 μM) were used in a mixture of 2/3 volumetric ratio of sucrose solution and Opti-MEM™, a reduced serum medium known to increase the efficiency of lipofection. […] For a physiologically relevant stress model, the standard stimulation condition involving IFN-γ/LPS/PMA was employed. Treatment of cells with IFN-γ/LPS leads to the endogenous production of nitric oxide and PMA provokes increased levels of superoxide. These two reactive species combine to form peroxynitrite, as described elsewhere herein. […] The intracellular redox selectivity of DPPC-TC-ONOO^− was also assessed using N-(3-(aminomethyl)benzyl)-acetamidine, known as 1400 W, which inhibits the production of NO· by irreversibly binding to iNOS. […] To determine whether DPPC-TC-ONOO^− localizes and functions at a specific subcellular compartment in HeLa, a comprehensive colocalization study was performed with dyes specific for lipid-rich and membrane-enclosed organelles, including the ER, mitochondrion, Golgi apparatus, and lysosome (FIGS. 9D-9E). In addition, actin stain was used to gain a visual insight into the cytoskeletal structure of the whole cell. […]

[1] = tested on: CD11b^+ macrophage population from BAL cells; assay: Murine model of ITB-induced ALI: DPPC-TC fluorescence in BAL cells by flow cytometry; assay type: in vivo, mice; conditions: 0.5 mM LNPs (5 mol % probe) on day 3, BAL 3 hour-post instillation, n = 3
From the text: FIGS. 11A-11B: flow cytometry analysis of myeloid-derived BAL cells for migratory phenotype and DPPC-TC-ONOO^− probe activity in murine model of ALI. FIG. 11A: conceptual illustration of ITB-induced ALI and LNP instillation. FIG. 11B: classification of myeloid-derived BAL cells by migratory phenotype (CD11b+) and DPPC-TC fluorescence. Quadrant plots are shown for individual mice, which were used to quantify DPPC-TC as a measure of peroxynitrite generation. After successfully imaging the iNOS dependent peroxynitrite activity in both HeLa and RAW264.7, the potential of DPPC-TC-ONOO^− for detecting peroxynitrite generated in lung tissue injury using a pre-established murine model of ALI was explored (FIGS. 11A-11B). During ALI, release of cytokines and chemokines, such as tumor necrosis factor-alpha (TNF-α) and interleukin-1 beta ([…]), recruit macrophages and other immune cells to the site of injury. During the initial phase of injury (d0-d3), pro-inflammatory macrophages are dominant, which is associated with higher levels of iNOS expression. Herein, a previously reported ITB method was employed, which causes a severe inflammatory response characterized by infiltration of immune cells, which is dependent upon iNOS activation. For a generalizable and biocompatible instillation protocol, LNP concentrations ranging from 0.5 to 2.0 mM were evaluated. LNPs carrying DPPC-TC (5 mol % of the lipid content) were employed in C57BL6/J mice and the viability of the cells from BAL was analyzed via flow cytometry. Results indicated 94% viability at 0.5 mM LNP concentration, which was employed for the subsequent experiments. On d0, mice (C57BL6/J or iNOS^−/−) were anesthetized and received an intratracheal instillation of either PBS (control) or bleomycin (FIGS. 11A-11B). To detect the peroxynitrite generation during the early inflammatory response, mice were again anesthetized and instilled with 0.5 mM LNPs containing DPPC-TC-ONOO^− (5 mol % of the lipid content) on day 3. […] The migratory population was further analyzed for DPPC-TC signal quantification (Table 4).

CCCCCCCCCCCCCCCC(=O)OCC(COP(=O)([O-])OCC[N+](C)(C)Cc1cn(-c2cc3ccc(OC(=O)Oc4ccc(CCC(=O)C(F)(F)F)cc4)cc3oc2=O)nn1)OC(=O)CCCCCCCCCCCCCCC (racemic) [DPPC-TC-ONOO^−]
signal in the DPPC-TC channel (HeLa cells; 1400 W only or 1400 W and IFN-γ/LPS/PMA): no observable signal
Pearson's correlation coefficient (PCC) (HeLa cells; DPPC-TC signal vs ER-Tracker Green): 0.938
fluorescence at 405/475 nm (HeLa cells; no stimulation): no observable signal
fluorescence at 405/475 nm (HeLa cells; stimulation with IFN-γ/LPS/PMA): substantial increase in fluorescence
colocalization correlation (HeLa cells; dyes specific for Golgi, mitochondria, and lysosomes): less significant correlation
time point at which intracellular fluorescence was observable upon PMA addition (HeLa cells; post IFN-γ/LPS stimulation, earliest possible image acquisition time): 3 min
DPPC-TC p:n ratio ([1]; WT-ITB): 0.72 ± 0.008
DPPC-TC p:n ratio ([1]; WT-PBS): 0.55 ± 0.021
DPPC-TC p:n ratio ([1]; iNOS^−/−-ITB): 0.56 ± 0.018
